Measurements reported in patent publication US9902736B2, “1-oxo/acylation-14-acylated oridonin derivative, preparation method therefor and application thereof” (HANGZHOU BENSHENG PHARMACEUTICAL CO., LTD., priority 2012, dated 2018).
Converted amounts (≈) assume the structure as drawn.

What was measured:
RPMI 8226 = test: Multiple myeloma cell growth inhibition, MTT, 72 h; format: cell-based; conditions: Homo sapiens
Method: Multiple myeloma cell lines: RPMI8226 (multiple myeloma), purchased from Fuxiang Bio-tech Co. Ltd., Shanghai, China.
(§1) 6000 well-growing cells were obtained and inoculated into wells of a 96-well cell culture plate. […] On the next day, the 1-oxo/acylated-14-acylated oridonin derivatives of different concentrations were added and mixed uniformly. The plate was placed in a carbon dioxide cell incubator (5% CO2) at 37° C. and incubated for 72 hours. Then the viable cell concentration was determined by MTT method.

H9 = test: Leukemia cell growth inhibition, MTT, 72 h; format: cell-based, human; conditions: Homo sapiens, H9; 72 h, MTT
From the text: (§2) Leukemia cell lines: leukemia cell lines: K562/adr (drug-resistant, chronic myeloid leukemia, CML), NB4 (acute promyelocytic leukemia, AML), Kasumi-1 (acute myeloid leukemia M2 type, AML-M2), Jurkat (acute lymphoblastic leukemia, ALL), all of which were donated by Cancer Research Institute of Zhejiang University, China; and H9 (acute lymphoblastic leukemia, ALL), which was purchased from China Center for Type Culture Collection.
as §1, with “6000 well-growing leukemia cells were” for “6000 well-growing cells were”, “C. and was incubated for” for “C. and incubated for”

NB4 = test: Leukemia cell growth inhibition, MTT, 72 h; format: cell-based, human; conditions: Homo sapiens, NB-4; 72 h, MTT
From the text: as §2
as §1, with “6000 well-growing leukemia cells were” for “6000 well-growing cells were”, “C. and was incubated for” for “C. and incubated for”

Jurkat = test: Leukemia cell growth inhibition, MTT, 72 h; format: cell-based, human; conditions: Homo sapiens, Jurkat; 72 h, MTT
From the text: as §2
as §1, with “6000 well-growing leukemia cells were” for “6000 well-growing cells were”, “C. and was incubated for” for “C. and incubated for”

K562/ADR = test: Leukemia cell growth inhibition, MTT, 72 h; format: cell-based; conditions: Homo sapiens
From the text: as §2
as §1, with “6000 well-growing leukemia cells were” for “6000 well-growing cells were”, “C. and was incubated for” for “C. and incubated for”

Kasumi-1 = test: Leukemia cell growth inhibition, MTT, 72 h; format: cell-based; conditions: Homo sapiens
From the text: as §2
as §1, with “6000 well-growing leukemia cells were” for “6000 well-growing cells were”, “C. and was incubated for” for “C. and incubated for”

MGC-803 = test: Solid tumor cell growth inhibition, MTT, 72 h; format: cell-based, human; conditions: Homo sapiens, MGC-803; 72 h, MTT
Method: (§3) 6000 well-growing human solid tumor cells were obtained and inoculated into wells of a 96-well cell culture plate. The culture medium was DMEM High Glucose cell culture medium containing 10% fetal bovine serum. The plate was placed in a carbon dioxide cell incubator (5% CO2) at 37° C. and incubated for 24 hours. After added with 1-oxo/acylated-14-acylated oridonin derivatives of different concentration and mixed uniformly, the plate was placed in a carbon dioxide cell incubator (5% CO2) at 37° C. and incubated for 72 hours. Then the viable cell concentration was determined by MTT method.

CNE = test: Solid tumor cell growth inhibition, MTT, 72 h; format: cell-based, human; conditions: Homo sapiens, CNE; 72 h, MTT
Method: as §3

Hep-2 = test: Solid tumor cell growth inhibition, MTT, 72 h; format: cell-based, human; conditions: Homo sapiens, HEp-2; 72 h, MTT
Method: as §3

Hela = test: Solid tumor cell growth inhibition, MTT, 72 h; format: cell-based, human; conditions: Homo sapiens, HeLa; 72 h, MTT
Method: as §3

U87-MG = test: Solid tumor cell growth inhibition, MTT, 72 h; format: cell-based; conditions: Homo sapiens, U-87 MG
Method: as §3

Hep G2 = test: Solid tumor cell growth inhibition, MTT, 72 h; format: cell-based; conditions: Homo sapiens, HepG2
Method: as §3

MG-63 = test: Solid tumor cell growth inhibition, MTT, 72 h; format: cell-based; conditions: Homo sapiens
Method: as §3

RKO = test: Solid tumor cell growth inhibition, MTT, 72 h; format: cell-based; conditions: Homo sapiens
Method: as §3

PC-3 = test: Solid tumor cell growth inhibition, MTT, 72 h; format: cell-based; conditions: Homo sapiens
Method: as §3

CaEs-17 = test: Solid tumor cell growth inhibition, MTT, 72 h; format: cell-based; conditions: Homo sapiens, CaEs17
Method: as §3

SK-OV-3 = test: Solid tumor cell growth inhibition, MTT, 72 h; format: cell-based; conditions: Homo sapiens, SK-OV-3, 72 h, MTT; for IC50: read-out: IC50 SK-OV-3; for IC90: read-out: IC90 SK-OV-3
Method: as §3

A549 = test: Solid tumor cell growth inhibition, MTT, 72 h; format: cell-based; conditions: Homo sapiens
Method: as §3

PANC-1 = test: Solid tumor cell growth inhibition, MTT, 72 h; format: cell-based; conditions: Homo sapiens
Method: as §3

Becap-37 = test: Solid tumor cell growth inhibition, MTT, 72 h; format: cell-based; conditions: Homo sapiens
Method: as §3

| SMILES | IC50 (RPMI 8226) | IC90 (RPMI 8226) | IC50 (H9) | IC90 (H9) | IC50 (NB4) | IC90 (NB4) | IC50 (Jurkat) | IC90 (Jurkat) | IC50 (K562/ADR) | IC90 (K562/ADR) | IC50 (Kasumi-1) | IC90 (Kasumi-1) | IC50 (MGC-803) | IC90 (MGC-803) | IC50 (CNE) | IC90 (CNE) | IC50 (Hep-2) | IC90 (Hep-2) | IC50 (Hela) | IC90 (Hela) | other results |
| --- | --- | --- | --- | --- | --- | --- | --- | --- | --- | --- | --- | --- | --- | --- | --- | --- | --- | --- | --- | --- | --- |
| C=C1C(=O)[C@]23[C@H](OC(=O)C4CCN(S(=O)(=O)c5ccccc5[N+](=O)[O-])CC4)[C@H]1CC[C@H]2[C@@]12CO[C@@]3(O)[C@@H](O)[C@@H]1C(C)(C)CCC2=O [BS-OR-034] | 1.48 µg/mL (≈ 2.25 µM) | 3.83 µg/mL (≈ 5.81 µM) | 0.78 µg/mL (≈ 1.18 µM) | 1.73 µg/mL (≈ 2.63 µM) | 0.5 µg/mL (≈ 0.759 µM) | 1.94 µg/mL (≈ 2.95 µM) | 1.32 µg/mL (≈ 2 µM) | 5.36 µg/mL (≈ 8.14 µM) | 1.52 µg/mL (≈ 2.31 µM) | 4.77 µg/mL (≈ 7.24 µM) | 1.58 µg/mL (≈ 2.4 µM) | 3.46 µg/mL (≈ 5.25 µM) | 2.89 µg/mL (≈ 4.39 µM) | 8.83 µg/mL (≈ 13.4 µM) | 3.73 µg/mL (≈ 5.66 µM) | 10.2 µg/mL (≈ 15.6 µM) | 3.97 µg/mL (≈ 6.03 µM) | 13.3 µg/mL (≈ 20.3 µM) | 2.98 µg/mL (≈ 4.52 µM) | 7.76 µg/mL (≈ 11.8 µM) | IC50 (U87-MG): 2.16 µg/mL (≈ 3.28 µM); IC90 (U87-MG): 6.75 µg/mL (≈ 10.2 µM); IC50 (Hep G2): 3.81 µg/mL (≈ 5.78 µM); IC90 (Hep G2): > 16 µg/mL; IC50 (MG-63): 1.28 µg/mL (≈ 1.94 µM); IC90 (MG-63): 3.22 µg/mL (≈ 4.89 µM); IC50 (RKO): 1.21 µg/mL (≈ 1.84 µM); IC90 (RKO): 1.97 µg/mL (≈ 2.99 µM); IC50 (PC-3): 3.88 µg/mL (≈ 5.89 µM); IC90 (PC-3): 9.45 µg/mL (≈ 14.3 µM); IC50 (CaEs-17): 3.48 µg/mL (≈ 5.28 µM); IC90 (CaEs-17): 11 µg/mL (≈ 16.7 µM); IC50 (SK-OV-3): 3.88 µg/mL (≈ 5.89 µM); IC90 (SK-OV-3): 9.45 µg/mL (≈ 14.3 µM); IC50 (A549): 6.43 µg/mL (≈ 9.76 µM); IC90 (A549): 11.9 µg/mL (≈ 18.1 µM); IC50 (PANC-1): 4.99 µg/mL (≈ 7.58 µM); IC90 (PANC-1): 11.9 µg/mL (≈ 18.1 µM); IC50 (Becap-37): 3.24 µg/mL (≈ 4.92 µM); IC90 (Becap-37): 10.1 µg/mL (≈ 15.4 µM) |
| C=C1C(=O)[C@]23[C@H](OC(=O)c4ccncc4)[C@H]1CC[C@H]2[C@@]12CO[C@@]3(O)[C@@H](O)[C@@H]1C(C)(C)CCC2=O [BS-OR-012] | 0.92 µg/mL (≈ 1.97 µM) | 3.48 µg/mL (≈ 7.44 µM) | 0.75 µg/mL (≈ 1.6 µM) | 1.99 µg/mL (≈ 4.26 µM) | 0.32 µg/mL (≈ 0.684 µM) | 1.3 µg/mL (≈ 2.78 µM) | 0.99 µg/mL (≈ 2.12 µM) | 5.77 µg/mL (≈ 12.3 µM) | 0.75 µg/mL (≈ 1.6 µM) | 3.2 µg/mL (≈ 6.84 µM) | 1.15 µg/mL (≈ 2.46 µM) | 2.39 µg/mL (≈ 5.11 µM) | 1.79 µg/mL (≈ 3.83 µM) | 3.99 µg/mL (≈ 8.53 µM) | 2.47 µg/mL (≈ 5.28 µM) | 9.36 µg/mL (≈ 20 µM) | 3.61 µg/mL (≈ 7.72 µM) | 14.7 µg/mL (≈ 31.5 µM) | 2.42 µg/mL (≈ 5.18 µM) | 6.3 µg/mL (≈ 13.5 µM) | IC50 (U87-MG): 1.88 µg/mL (≈ 4.02 µM); IC90 (U87-MG): 6.17 µg/mL (≈ 13.2 µM); IC50 (Hep G2): 3.01 µg/mL (≈ 6.44 µM); IC90 (Hep G2): 16 µg/mL (≈ 34.2 µM); IC50 (MG-63): 0.99 µg/mL (≈ 2.12 µM); IC90 (MG-63): 3.84 µg/mL (≈ 8.21 µM); IC50 (RKO): 1.01 µg/mL (≈ 2.16 µM); IC90 (RKO): 1.98 µg/mL (≈ 4.24 µM); IC50 (PC-3): 3.48 µg/mL (≈ 7.44 µM); IC90 (PC-3): 7.54 µg/mL (≈ 16.1 µM); IC50 (CaEs-17): 2.01 µg/mL (≈ 4.3 µM); IC90 (CaEs-17): 10 µg/mL (≈ 21.5 µM); IC50 (SK-OV-3): 3.48 µg/mL (≈ 7.44 µM); IC90 (SK-OV-3): 7.54 µg/mL (≈ 16.1 µM); IC50 (A549): 5.55 µg/mL (≈ 11.9 µM); IC90 (A549): 10.7 µg/mL (≈ 22.9 µM); IC50 (PANC-1): 4.11 µg/mL (≈ 8.79 µM); IC90 (PANC-1): 10.2 µg/mL (≈ 21.8 µM); IC50 (Becap-37): 2.39 µg/mL (≈ 5.11 µM); IC90 (Becap-37): 6.29 µg/mL (≈ 13.5 µM) |
| C=C1C(=O)[C@]23[C@H](OC(=O)c4ccccc4)[C@H]1CC[C@H]2[C@@]12CO[C@@]3(O)[C@@H](O)[C@@H]1C(C)(C)CCC2=O [BS-OR-001] | 0.41 µg/mL (≈ 0.879 µM) | 1.89 µg/mL (≈ 4.05 µM) | 0.45 µg/mL (≈ 0.965 µM) | 0.95 µg/mL (≈ 2.04 µM) | 0.14 µg/mL (≈ 0.3 µM) | 0.47 µg/mL (≈ 1.01 µM) | 0.68 µg/mL (≈ 1.46 µM) | 2.63 µg/mL (≈ 5.64 µM) | 0.6 µg/mL (≈ 1.29 µM) | 1.73 µg/mL (≈ 3.71 µM) | 0.72 µg/mL (≈ 1.54 µM) | 1.86 µg/mL (≈ 3.99 µM) | 0.88 µg/mL (≈ 1.89 µM) | 11 µg/mL (≈ 23.5 µM) | 1.41 µg/mL (≈ 3.02 µM) | 5.45 µg/mL (≈ 11.7 µM) | 1.64 µg/mL (≈ 3.52 µM) | 7.7 µg/mL (≈ 16.5 µM) | 1.65 µg/mL (≈ 3.54 µM) | 4.67 µg/mL (≈ 10 µM) | IC50 (U87-MG): 0.8 µg/mL (≈ 1.71 µM); IC90 (U87-MG): 2.36 µg/mL (≈ 5.06 µM); IC50 (Hep G2): 0.98 µg/mL (≈ 2.1 µM); IC90 (Hep G2): 10.6 µg/mL (≈ 22.7 µM); IC50 (MG-63): 0.47 µg/mL (≈ 1.01 µM); IC90 (MG-63): 0.99 µg/mL (≈ 2.12 µM); IC50 (RKO): 0.46 µg/mL (≈ 0.986 µM); IC90 (RKO): 0.94 µg/mL (≈ 2.01 µM); IC50 (PC-3): 1.67 µg/mL (≈ 3.58 µM); IC90 (PC-3): 3.8 µg/mL (≈ 8.15 µM); IC50 (CaEs-17): 1.21 µg/mL (≈ 2.59 µM); IC90 (CaEs-17): 5.47 µg/mL (≈ 11.7 µM); IC50 (SK-OV-3): 1.67 µg/mL (≈ 3.58 µM); IC90 (SK-OV-3): 3.8 µg/mL (≈ 8.15 µM); IC50 (A549): 2.6 µg/mL (≈ 5.57 µM); IC90 (A549): 6.08 µg/mL (≈ 13 µM); IC50 (PANC-1): 1.79 µg/mL (≈ 3.84 µM); IC90 (PANC-1): 6.42 µg/mL (≈ 13.8 µM); IC50 (Becap-37): 1.12 µg/mL (≈ 2.4 µM); IC90 (Becap-37): 3.79 µg/mL (≈ 8.12 µM) |
